What was measured:
5-HT3 Receptor = biological target: T1, 5-HT3 Receptor (Rattus norvegicus, UniProt P35563); test: ^3 H-GR 65630 Binding to Rat Entorhinal Cortex Membranes (affinity for 5-HT3 receptor); design: species or system Male Wistar rat; details: 0.4 nM [^3 H]-GR65630, pH 7.4, 30 minutes at 37° C., read-out: IC50, Affinity for 5-HT3 Receptor-Displacement of ^3 H-GR 65630
T1 construct: Male Wistar rats (15-200 g) were decapitated, the entorhinal cortex removed, weighed and homogenized; from tissue; host or cells: entorhinal cortex membranes of male Wistar rats
T1 sequence (P35563 24-483): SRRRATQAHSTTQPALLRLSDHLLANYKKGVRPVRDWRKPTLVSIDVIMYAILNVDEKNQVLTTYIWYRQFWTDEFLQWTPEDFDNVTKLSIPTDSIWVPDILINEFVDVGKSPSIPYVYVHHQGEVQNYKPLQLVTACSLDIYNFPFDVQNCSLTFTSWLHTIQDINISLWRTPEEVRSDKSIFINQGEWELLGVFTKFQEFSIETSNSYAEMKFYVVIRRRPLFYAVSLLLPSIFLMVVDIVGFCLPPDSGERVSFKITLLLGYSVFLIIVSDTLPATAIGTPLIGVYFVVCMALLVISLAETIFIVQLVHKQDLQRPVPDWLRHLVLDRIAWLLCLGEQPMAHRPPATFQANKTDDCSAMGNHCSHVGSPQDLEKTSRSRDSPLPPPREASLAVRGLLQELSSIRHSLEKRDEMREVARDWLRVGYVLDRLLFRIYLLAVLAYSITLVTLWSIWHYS
Method: In accordance with the above-discussed assay, a 0.05M of Krebs-Hepes buffer, pH 7.4 was prepared as follows:
q.s. to 1 liter with distilled H2 O, bring pH up to 7.4 (at 4° C.) with 5N NaOH
[^3 H]-GR65630 (87.0 Ci/mmol) was obtained from New England Nuclear.
GR38032F was obtained from Research Biochemical Inc. GR38032F was made up to a concentration of 500 μM in Krebs-Hepes buffer. 50 μl of […] were added to each of 3 tubes for determination of nonspecific binding (yields a final concentration of 100 μM in the 250 μl assay).
For most assays, a 50 μM stock solution was prepared in a suitable solvent and serially diluted with Krebs-Hepes buffer such that when 50 μl of drug is combined with the total 250 μl assay, a final concentration from 10^-5 to 10^-8 M was attained.
During tissue preparation, Male Wistar rats ([…]) were decapitated, the entorhinal cortex removed, weighed and homogenized in 10 volumes of ice cold 0.05M Krebs-Hepes buffer, pH 7.4. The homogenate is centrifuged at 48,000 g for 15 minutes at 4° C. The resulting pellet was rehomogenized in fresh Krebs-Hepes buffer and recentrifuged at 48,000 g for 15 minutes at 4° C. The final pellet was resuspended in the original volume of ice-cold Krebs-Hepes buffer. This yielded a final tissue concentration of 1.2 to 1.6 mg/ml with the addition of 100 μl to the assay.
In conducting the assay, the following volumes were utilized:
Sample tubes were kept on ice for additions, then vortexed and incubated with continuous shaking for 30 minutes at 37° C. At the end of the incubation period, the incubate is diluted with 5 ml of ice-cold Krebs-Hepes buffer and immediately vacuum filtered through Whatman GF/B filters, followed by two 5 ml washes with ice-cold Krebes-Hepes buffer. The filters are dried and counted in 10 ml of liquid scintillation cocktail. […] IC50 values were derived from computer-derived log-probit analysis.

5-HT3 = test: 5 HT3 antagonist effects in the Bezold-Jarisch assay (reflex bradycardia, anesthetized Long-Evans rat); format: in vivo; details: ip, mean ± SEM, 2-3 rats/dose
Description: Measurement of 5 HT3 Antagonist Effects in the Bezold-Jarisch Assay
This assay evaluates the effect of these compounds as 5-HT3 antagonists. They were examined in this assay on the coronary chemoreflex (Bezold-Jarisch) initiated by […] in vivo and characterized by leading inhibition of sympathetic outflow and increased activity of the cardiac vagus, leading to profound bradycardia and hypotension. The values obtained allow for continuous monitoring of arterial pressure and heart rate responses by these compounds over an extended period of time to determine their effecicy for 5 HT3 antagonism.
The catheters were prepared from Tygon tubing (45 cm length, […], ID) bonded to Teflon tubing (0.38 mm, ID). The mechanical bonding was achieved by insertion of the Teflon tubing (5 mm) into the dilated (ethylene dichloride, 3-4 min.) tip of the Tygon tubing. The junction was then sealed with vinyl glue, the catheters were soaked in cold sterilization solution (Amerse instrument germicide) and flushed thoroughly with saline prior to implantation.
Long Evans rats were anesthetized with sodium pentobarbital (50 mg/kg, ip). […] The catheters were then sutured to the underlying muscle and the free ends were passed subcutaneously and exteriorized through an incision on the top of the skull. The catheters were then secured to the skin with sutures, nitrofurazone powder was dusted over the area of the incision and the incision was closed using 3-O silk sutures. The catheters were flushed with saline and sealed with metal obturators. Patentcy of the two catheters was maintained by daily flushing with hepranized saline (0.2 ml of 100 U/ml). The rats were given 48 hours recovery prior to obtaining cardiovascular data.
In the anesthetized rat model the catheters were not exteriorized, data was collected acutely under the influence of general anesthesia.
The baseline data Arterial Blood Pressure (mm Hg, systolic/diastolic) and Heart Rate (beats/min) were recorded and the rats were injected with 5-HT (3-7.5 ug/kg, iv). The individual response to the 5-HT intervention was determined and the compound was then administered singlely or in an ascending dose range. The rats were challenged with 5-HT again at intervals postdosing and the peak response was recorded.

IC50 (5-HT3 Receptor)	Compound	% Inhibition of Bezold-Jarisch Reflex (5-HT3; 0.03 mg/kg)	% Inhibition of Bezold-Jarisch Reflex (5-HT3; 0.05 mg/kg)	% Inhibition of Bezold-Jarisch Reflex (5-HT3; 0.10 mg/kg)	% Inhibition of Bezold-Jarisch Reflex (5-HT3; 1.0 mg/kg)	% Inhibition of Bezold-Jarisch Reflex (5-HT3; 3.0 mg/kg)	% Inhibition of Bezold-Jarisch Reflex (5-HT3; 10.0 mg/kg)
868 nM	OCCN1CCN(c2onc3c2CCc2ccccc2-3)CC1 [Ex. 3, 3-(4-(2-Hydroxyethyl)-1-piperazinyl)-4,5-dihydronaphth[1,2-c]isoxazole]	–	–	–	–	–	–
83 nM	c1ccc2c(c1)CCc1c-2noc1N1CCCNCC1 [Ex. 4, 3-(1-Homopiperazinyl)-4,5-dihydronaphth[1,2-c]isoxazole]	58.6 ± 16.4%	83.3 ± 8.2%	93.0 ± 1.0%	–	–	–
56 nM	c1ccc2c(c1)CCc1c-2noc1N1CCNCC1 [Ex. 5, 3-(1-Piperazinyl)-4,5-dihydronaphth[1,2-c]isoxazole]	–	–	–	55.6 ± 9.7%	89.3 ± 2.9%	–
–	Cc1nccn1CC1CCc2c(c3ccccc3n2C)C1=O (stereo not shown) [Ondansetron, reference compound]	–	–	–	–	57.3 ± 9.7%	94.6 ± 2.7%

Reference: US5880121A, “4,5-dihydronaphth (1,2-c) isoxazoles and derivatives thereof” (Hoechst Marion Roussel Inc., priority 1996, dated 1999)
